The test system of assay [1] is c-myc in Human AML MV4-11 cells. The assay is described as follows: Inhibition of c-MYC expression (mRNA, real-time PCR) in MV4-11 cells. Format: cell-based. The conditions noted are these: 3 h, mRNA by real-time PCR. As for the experimental part: MV4-11 cells (CRL-9591) were plated at a density of 2.5×10^4 cells per well in 96 well U-bottom plates and treated with increasing concentrations of test compound or DMSO (0.1%) in IMDM media containing 10% FBS and penicillin/streptomycin, and incubated for 3 h at 37° C. Triplicate wells were used for each concentration. Cells were pelleted by centrifugation and harvested using the mRNA Catcher PLUS kit according to manufacturer's instructions. The eluted mRNA isolated was then used in a one-step quantitative real-time PCR reaction, using components of the RNA UltraSense™ One-Step Kit (Life Technologies) together with Applied Biosystems TaqMan® primer-probes for cMYC and Cyclophilin. Real-time PCR plates were run on a ViiA™7 real time PCR machine (Applied Biosystems), data was analyzed, normalizing the Ct values for hMYC to an internal control, prior to determining the fold expression of each sample, relative to the control.

Another assay concerns Human AML MV-4-11 cells. As to the kind of experiment: Inhibition of cell proliferation in MV4-11 cells (CellTiter Aqueous One). Format: cell-based. The following applies: 72 h. As for the experimental part: In this example, cell titer in MV4-11 cells were quantitated to measure the inhibition of proliferation when treated with a compound of the present disclosure.
MV4-11 cells (CRL-9591) were plated at a density of 5×10^4 cells per well in 96 well flat bottom plates and treated with increasing concentrations of test compound or DMSO (0.1%) in IMDM media containing 10% FBS and penicillin/streptomycin. Triplicate wells were used for each concentration and a well containing only media was used as a control. Plates were incubated at 37° C., 5% CO2 for 72 h before adding 20 μL of the CellTiter Aqueous One Solution (Promega) to each well and incubated at 37° C., 5% CO2 for an additional 3-4 h. The absorbance was read at 490 nm in a spectrophotometer and the percentage of cell titer relative to DMSO-treated cells was calculated after correcting for background by subtracting the blank well's signal. IC50 values were calculated using the Graph Pad Prism software.

The test system of the next assay is hIL-6 mRNA in U937 cells. As to the kind of experiment: Inhibition of hIL-6 mRNA transcription in LPS-stimulated U937 cells. Format: cell-based. The conditions noted are these: Homo sapiens, U-937, PMA-differentiated U937 cells, LPS 1 ug/mL, 3 h, read-out: IL-6 activity. As for the experimental part: In this example, hIL-6 mRNA in tissue culture cells were quantitated to measure the transcriptional inhibition of hIL-6 when treated with a compound of the present disclosure.
Human leukemic monocyte lymphoma U937 cells (CRL-1593.2) were plated at a density of 3.2×10^4 cells per well in a 96-well plate in 100 μL RPMI-1640 containing 10% FBS and penicillin/streptomycin, and differentiated into macrophages for 3 days in 60 ng/mL PMA ([…]) at 37° C. in 5% CO2 prior to the addition of compound. The cells were pretreated for 1 h with increasing concentrations of test compound in 0.1% DMSO prior to stimulation with 1 ug/mL lipopolysaccharide from Escherichia coli. Triplicate wells were used for each concentration. The cells were incubated at 37° C., 5% CO2 for 3 h before the cells were harvested. At time of harvest, media was removed and cells were rinsed in 200 μL PBS. Cells were harvested using the mRNA Catcher PLUS kit according to manufacturer's instructions. The eluted mRNA was then used in a one-step quantitative real-time PCR reaction using components of the RNA UltraSense™ One-Step Kit (Life Technologies) together with Applied Biosystems TaqMan® primer-probes for hIL-6 and Cyclophilin. Real-time PCR plates were run on a ViiA™7 real time PCR machine (Applied Biosystems), data was analyzed, normalizing the Ct values for hIL-6 to an internal control, prior to determining the fold expression of each sample, relative to the control.

For assay [2], the target named is T1, Brd4 bromodomain 1 (BRD4(1)) (Homo sapiens, UniProt O60885).
T1 construct: made in house; host or cells: E. coli BL21(DE3)
The assay is described as follows: Inhibition of tetra-acetylated histone H4 binding to Brd4 bromodomain 1 (HTRF/FRET). The conditions noted are these: tetra-acetylated histone H4 peptide, His-tagged bromodomain 200 nM, 2 h. Here is the method:
Proteins were cloned and overexpressed with a N-terminal 6×His tag, then purified by nickel affinity followed by size exclusion chromatography. Briefly, E. coli BL21(DE3) cells were transformed with a recombinant expression vector encoding N-terminally Nickel affinity tagged bromodomains from Brd2, Brd3, Brd4. Cell cultures were incubated at 37° C. with shaking to the appropriate density and induced overnight with IPTG. The supernatant of lysed cells was loaded onto Ni-IDA column for purification. Eluted protein was pooled, concentrated and further purified by size exclusion chromatography. Fractions representing monomeric protein were pooled, concentrated, aliquoted, and frozen at −80° C. for use in subsequent experiments.
Binding of tetra-acetylated histone H4 and BET bromodomains was confirmed by a Homogenous Time Resolved Fluorescence Resonance Energy Transfer (HTRF®) method. N-terminally His-tagged bromodomains (200 nM) and biotinylated tetra-acetylated histone H4 peptide (25-50 nM, Millipore) were incubated in the presence of Europium Cryptate-labeled streptavidin (Cisbio Cat. #610SAKLB) and XL665-labeled monoclonal anti-His antibody (Cisbio Cat. #61HISXLB) in a white 96 well microtiter plate (Greiner). For inhibition assays, serially diluted test compound was added to these reactions in a 0.2% final concentration of DMSO. Duplicate wells were used for each concentration tested. Final buffer concentrations were 30 mM HEPES pH 7.4, 30 mM NaCl, 0.3 mM CHAPS, 20 mM phosphate pH 7.0, 320 mM KF, 0.08% BSA. After a 2 h incubation at room temperature, fluorescence was measured at 665 and 620 nm with a SynergyH4 plate reader (Biotek). The binding inhibitory activity was shown by a decrease in 665 nm relative to 620 nm fluorescence. IC50 values were determined from a dose response curve.
(Time-resolved FRET reads energy transfer from a long-lived donor to a nearby acceptor.)

Assay [3] deals with hIL-17 mRNA in human peripheral blood mononuclear cells. As to the kind of experiment: Inhibition of hIL-17 mRNA transcription in OKT3-stimulated PBMC. Format: cell-based. The conditions noted are these: OKT3 antibody, 6 h, read-out: IL-17 activity. Here is the method:
In this example, hIL-17 mRNA in human peripheral blood mononuclear cells were quantitated to measure the transcriptional inhibition of hIL-17 when treated with a compound of the present disclosure.
Human peripheral blood mononuclear cells were plated (2.0×10^5 cells per well) in a 96-well plate in 45 μL OpTimizer T Cell expansion media (Life Technologies) containing 20 ng/ml IL-2 and penicillin/streptomycin. The cells were treated with increasing concentrations of the test compound or DMSO (0.1%), and incubated at 37° C., 5% CO2 for 1 h before addition of 10× stock OKT3 antibody at 10 ug/ml in media. Triplicate wells were used for each concentration. Cells were incubated at 37° C., 5% CO2 for 6 h before the cells were harvested. At time of harvest, cells were pelleted by centrifugation at 800 rpm for 5 min. Cells were harvested using the mRNA Catcher PLUS kit according to manufacturer's instructions. The eluted mRNA was then used in a one-step quantitative real-time PCR reaction, using components of the RNA UltraSense™ One-Step Kit (Life Technologies) together with Applied Biosystems TaqMan® primer-probes for hIL-17 and Cyclophilin. Real-time PCR plates were run on a ViiA™7 real time PCR machine (Applied Biosystems), data was analyzed, normalizing the Ct values for hIL-17 to an internal control, prior to determining the fold induction of each unknown sample, relative to the control.

We go through 10 molecules from patent US10226451B2, “Substituted bicyclic compounds as bromodomain inhibitors” (ZENITH EPIGENETICS LTD, priority 2013, dated 2019).

As to `Cc1noc(C)c1-c1cc(-c2c(C)noc2C)c2c(c1)[nH]c(=O)n2C` [Example Compound 2, 5,7-bis(3,5-dimethylisoxazol-4-yl)-1-methyl-1H-benzo[d]imidazol-2(3H)-one], the IC50 in assay [1] is not above 300 nM; in the assay with Human AML MV-4-11 cells, 300 to 3000 nM; in the assay with hIL-6 mRNA in U937 cells it was not above 300 nM; in assay [2], not above 300 nM; in assay [3], not above 300 nM.
With `Cc1noc(C)c1-c1cc(-c2ccccc2C(F)(F)F)c2c(c1)[nH]c(=O)n2C` [Example Compound 5, 5-(3,5-dimethylisoxazol-4-yl)-1-methyl-7-(2-(trifluoromethyl)phenyl)-1H-benzo[d]imidazol-2(3H)-one], the IC50 was not above 300 nM in assay [1]; not above 300 nM with Human AML MV-4-11 cells; not above 300 nM in the assay on hIL-6 mRNA in U937 cells; not above 300 nM in assay [2]; 300 to 3000 nM in assay [3].
In the case of `Cc1cnsc1-c1cc(-c2c(C)noc2C)cc2[nH]c(=O)n(C)c12` [Example Compound 10, 5-(3,5-dimethylisoxazol-4-yl)-1-methyl-7-(4-methylisothiazol-5-yl)-1H-benzo[d]imidazol-2(3H)-one], the IC50 (in assay [1]; with Human AML MV-4-11 cells; in the assay with hIL-6 mRNA in U937 cells; in assay [2]; in assay [3]) was not above 300 nM each time.
Turning to `Cc1noc(C)c1-c1cc(-c2ccc(F)cc2C(F)(F)F)c2c(c1)[nH]c(=O)n2C` [Example Compound 11, 5-(3,5-dimethylisoxazol-4-yl)-7-(4-fluoro-2-(trifluoromethyl)phenyl)-1-methyl-1H-benzo[d]imidazol-2(3H)-one], the IC50 in assay [1] was 300 to 3000 nM; in the assay on Human AML MV-4-11 cells it was 300 to 3000 nM; with hIL-6 mRNA in U937 cells, 300 to 3000 nM; in assay [2], 300 to 3000 nM; in assay [3] it was not above 300 nM.
Regarding `COc1ccc(F)cc1-c1cc(-c2c(C)noc2C)cc2[nH]c(=O)n(C)c12` [Example Compound 18, 5-(3,5-dimethylisoxazol-4-yl)-7-(5-fluoro-2-methoxyphenyl)-1-methyl-1H-benzo[d]imidazol-2(3H)-one], the IC50 in assay [1] is 300 to 3000 nM; with Human AML MV-4-11 cells it was 300 to 3000 nM; in the assay on hIL-6 mRNA in U937 cells, not above 300 nM; in assay [2] it was not above 300 nM; in assay [3] it was not above 300 nM.
Take `Cc1nc(N)ccc1-c1cc(-c2c(C)noc2C)cc2[nH]c(=O)n(C)c12` [Example Compound 20, 7-(6-amino-2-methylpyridin-3-yl)-5-(3,5-dimethylisoxazol-4-yl)-1-methyl-1H-benzo[d]imidazol-2(3H)-one]: the IC50 in assay [1] was 300 to 3000 nM; in the assay on Human AML MV-4-11 cells, not above 300 nM; in the assay with hIL-6 mRNA in U937 cells it was not above 300 nM; in assay [2], not above 300 nM; in assay [3] it was 300 to 3000 nM.
Consider `Cc1n[nH]c(C)c1-c1cc(-c2c(C)noc2C)cc2[nH]c(=O)n(C)c12` [Example Compound 21, 7-(3,5-dimethyl-1H-pyrazol-4-yl)-5-(3,5-dimethylisoxazol-4-yl)-1-methyl-1H-benzo[d]imidazol-2(3H)-one], for which the IC50 (in assay [1]; in the assay with Human AML MV-4-11 cells; with hIL-6 mRNA in U937 cells; in assay [2]; in assay [3]) was not above 300 nM throughout.
For the molecule `Cc1noc(C)c1-c1cc(-c2c(C)nn(C)c2C)c2[nH]c(=O)[nH]c2c1` [Example Compound 22, 6-(3,5-dimethylisoxazol-4-yl)-4-(1,3,5-trimethyl-1H-pyrazol-4-yl)-1H-benzo[d]imidazol-2(3H)-one], the IC50 (in assay [1]; with Human AML MV-4-11 cells; with hIL-6 mRNA in U937 cells; in assay [2]; in assay [3]) was not above 300 nM throughout.
With `Cc1noc(CO)c1-c1cc(-c2c(C)nn(C)c2C)c2c(c1)[nH]c(=O)n2C` [Example Compound 28, 5-(5-(hydroxymethyl)-3-methylisoxazol-4-yl)-1-methyl-7-(1,3,5-trimethyl-1H-pyrazol-4-yl)-1H-benzo[d]imidazol-2(3H)-one], the IC50 was 300 to 3000 nM in assay [1]; 300 to 3000 nM in the assay on Human AML MV-4-11 cells; 300 to 3000 nM in the assay on hIL-6 mRNA in U937 cells; not above 300 nM in assay [2]; 300 to 3000 nM in assay [3].
As for `Cc1noc(C)c1-c1cc(-c2cccc(C(N)=O)c2C)c2c(c1)[nH]c(=O)n2C` [Example Compound 30, 3-(6-(3,5-dimethylisoxazol-4-yl)-3-methyl-2-oxo-2,3-dihydro-1H-benzo[d]imidazol-4-yl)-2-methylbenzamide], the IC50 (in assay [1]; in the assay on Human AML MV-4-11 cells; with hIL-6 mRNA in U937 cells; in assay [2]; in assay [3]) was not above 300 nM throughout.
